One assay concerns serum calcium. Put plainly: hypocalcemic response in thyroidectomized rats. Format: in vivo, rat. As to conditions: 3 to 100 mg/kg p.o. The source says:
In subsequent studies, rats received a thyroidectomy (parathyroid glands intact). This surgical procedure effectively removed the C-cells secreting calcitonin and therefore enabled the relative contributions of PTH and calcitonin to the hypocalcemic effect of this compound to be determined. […] The only difference was that the rate of onset of the hypqcalcemic response was somewhat delayed in thyroidectomized animals. […] Stimulatory effects of this compound on calcitonin secretion increases the rate of onset, but not the extent, of hypocalcemia.

For another assay, the system named is serum calcitonin. Put plainly: serum calcitonin in a human. As to conditions: single oral doses studied. Type of assay: in vivo. From the text:
(§1) A range of single oral doses was used to assess safety, tolerance, and changes in primary hyperparathyroidism markers (e.g., plasma concentrations of parathyroid hormone and ionized serum calcium) and of serum calcitonin.

The subject of assay [1] is serum parathyroid hormone. Put plainly: serum PTH in a human. Type of assay: in vivo. The conditions noted are these: single oral doses.
From the text: as §1

A further assay has as its system calcitonin. Put plainly: calcitonin levels in rats. As to conditions: NPS R-568 p.o. Format: in vivo, rat.
In another assay the test system is serum ionized calcium. Briefly: serum ionized calcium in a human. Type of assay: in vivo. As to conditions: higher single oral doses.
From the text: as §1

Another assay relates to bovine parathyroid cells. Put plainly: PTH secretion from bovine parathyroid cells. Format: cell-based. The conditions noted are these: bovine parathyroid cells.
The subject of the next assay is human parathyroid cells. Put plainly: PTH secretion from human parathyroid cells. As to conditions: human (adenoma) parathyroid cells. Format: cell-based. As to the method: PTH secretion was measured by first suspending cells in PCB containing 0.5 mM CaCl2 and 0.1% BSA.
For human cells, a commercially available radioimmunoassay kit (INS-PTH; Nichols Institute, Los Angeles, Calif.) which recognizes intact and N-terminal human PTH was used because GW-1 antibody recognizes human PTH poorly.

For assay [2], the system named is osteoclast calcium receptor. Briefly: [Ca2+]i in indo-1-loaded rat osteoclasts. Type of assay: cell-based.
The next assay has as its target T1, calcium receptor (Homo sapiens, UniProt P41180).
T1 sequence (P41180 20-1078): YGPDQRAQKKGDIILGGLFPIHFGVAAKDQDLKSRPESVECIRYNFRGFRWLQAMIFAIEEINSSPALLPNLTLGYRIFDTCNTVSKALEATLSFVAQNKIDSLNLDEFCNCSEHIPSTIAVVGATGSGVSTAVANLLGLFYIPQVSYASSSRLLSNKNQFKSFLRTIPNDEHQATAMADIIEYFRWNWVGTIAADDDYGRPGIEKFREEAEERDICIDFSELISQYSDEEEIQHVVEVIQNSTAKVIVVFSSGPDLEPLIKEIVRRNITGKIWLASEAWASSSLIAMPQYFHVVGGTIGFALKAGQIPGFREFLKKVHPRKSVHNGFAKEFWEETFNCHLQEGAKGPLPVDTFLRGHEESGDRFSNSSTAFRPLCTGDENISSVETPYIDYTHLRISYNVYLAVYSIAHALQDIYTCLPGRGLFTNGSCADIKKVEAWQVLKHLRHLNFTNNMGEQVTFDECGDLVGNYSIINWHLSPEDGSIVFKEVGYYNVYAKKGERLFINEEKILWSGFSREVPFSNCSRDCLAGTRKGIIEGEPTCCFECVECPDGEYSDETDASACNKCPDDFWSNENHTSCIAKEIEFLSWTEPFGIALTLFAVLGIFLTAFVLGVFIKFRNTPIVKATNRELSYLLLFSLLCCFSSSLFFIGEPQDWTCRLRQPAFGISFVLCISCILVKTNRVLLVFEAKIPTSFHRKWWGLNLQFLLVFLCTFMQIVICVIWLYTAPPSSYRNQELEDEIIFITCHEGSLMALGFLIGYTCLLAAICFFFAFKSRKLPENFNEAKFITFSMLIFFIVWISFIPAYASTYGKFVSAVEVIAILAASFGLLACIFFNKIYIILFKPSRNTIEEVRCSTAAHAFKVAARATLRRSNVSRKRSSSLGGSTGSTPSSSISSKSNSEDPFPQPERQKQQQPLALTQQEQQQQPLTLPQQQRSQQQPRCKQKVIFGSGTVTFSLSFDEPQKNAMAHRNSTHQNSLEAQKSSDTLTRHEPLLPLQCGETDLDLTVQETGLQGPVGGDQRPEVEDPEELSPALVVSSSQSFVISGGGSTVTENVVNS
Briefly: Xenopus oocytes injected with human parathyroid cell mRNA. Format: cell-based. As to conditions: for effect on Cl- current: oocytes injected with human parathyroid mRNA; for effect in water-injected oocytes: neomycin B 10 mM. As to the method: Oocytes were injected with poly(A)^+ -enriched mRNA from human parathyroid tissue (hyperplastic glands from a case of secondary HPT).
Following incubation, an oocyte was placed into a 100-μl plastic chamber and superfused with MBS at a flow rate of 0.5 ml/min using a peristaltic pump. Test molecules or inorganic polycations were added by rapidly moving the tubing into different buffers. Recording and current-passing electrodes were constructed from thin-wall capillary tubing pulled to a resistance of 1-3 Mohms and filled with 3 M KCl. […] Currents were recorded directly onto a strip chart recorder.
Using this screen allows one to test for an action directly on the calcium receptor. Oocytes expressing the calcium receptor also responded to several molecules active on intact parathyroid cells when screened as follows. […] This offers rather compelling evidence showing that these molecules act on the calcium receptor or on some other protein intimately associated with its function.

For assay [3], the target named is T2, parathyroid cell calcium receptor (Homo sapiens, UniProt P41180).
T2 construct: Dissociated parathyroid cells were prepared from a parathyroid adenoma obtained by surgery from a patient with primary hyperparathyroidism; endogenous in cells; host or cells: human parathyroid cells (adenoma or hyperplastic glands from patients)
T2 sequence (P41180 20-1078): T1 sequence (P41180 20-1078)
Briefly: mobilization of intracellular Ca2+ in human parathyroid cells. Type of assay: cell-based. The conditions noted are these: neomycin B 10 or 20 μM, spermine 300 μM, Mg2+ 10 mM.
Description: Human parathyroid glands, were obtained from patients undergoing surgical removal of parathyroid tissue for primary or uremic hyperparathyroidism (uremic HPT), and were treated similarly to bovine tissue.
The cells were then pelleted, resuspended in the same buffer, but lacking the ester, and incubated a further 15 minutes at 37° C. The cells were subsequently washed twice with PCB containing 0.5 mM CaCl2 and 0.5% BSA and maintained at room temperature (about 20° C.). Immediately before use, the cells were diluted five-fold with prewarmed 0.5 mM CaCl2 -PCB to obtain a final BSA concentration of 0.1%. The concentration of cells in the cuvette used for fluorescence recording was 1-2×10^6 /ml.

“Also recorded” adds a separate entry of the source. Where two headings read alike, the source gives them in different places.

As to `COc1cccc([C@@H](C)NCCCc2ccccc2Cl)c1` [NPS R-568, (R)-(+)-N-[3-(2-chlorophenyl)propyl]-α-methyl-3-methoxybenzylamine], the “hypocalcemic response in thyroidectomized rats” value in the assay on serum calcium is given as “hypocalcemic response equal in magnitude to that produced in sham-operated animals”. The “effect on serum calcitonin in human” value with serum calcitonin was “no apparent change in serum calcitonin”. Besides, in assay [1], the “effect on plasma PTH in human” value is “transient dose-dependent decrease in plasma PTH concentration”. For the same molecule, in the assay on calcitonin, the “effect on calcitonin, oral” value is “increase in calcitonin”. For the same molecule, the “effect on serum ionized calcium in human” value in the assay with serum ionized calcium was “decrease in serum ionized calcium concentration”.
As for `NC[C@@H]1O[C@H](O[C@H]2[C@@H](O)[C@H](O[C@@H]3[C@@H](O)[C@H](N)C[C@H](N)[C@H]3O[C@H]3O[C@H](CN)[C@@H](O)[C@H](O)[C@H]3N)O[C@@H]2CO)[C@H](N)[C@@H](O)[C@@H]1O` [Neomycin], the “effect on PTH secretion” value is reported as “inhibited PTH secretion to the same extent as extracellular Ca^2+” in the assay on bovine parathyroid cells, “inhibited PTH secretion from human parathyroid cells” in the assay with human parathyroid cells (listed as Neomycin B) and “inhibit PTH secretion” in the assay with human parathyroid cells (listed as neomycin B). Also, the “effect on [Ca2+]i in osteoclasts” value was “failed to evoke any increase in [Ca^2+ ]i; also recorded: Neither neomycin (10 mM) nor spermine (10 or 20 mM) caused increases in [Ca^2+ ]i; also recorded: fail to affect the calcium receptors on C-cells or osteoclasts” in assay [2], “none of these caused any large increase in [Ca^2+ ]i” in assay [2] (listed as neomycin) and “fail to evoke increases in [Ca^2+ ]i” in assay [2] (listed as neomycin B). In addition, in assay [2], the “effect on response to extracellular Ca2+ in osteoclasts” value was “did not block the increase in [Ca^2+ ]i”. In addition, the “mobilization of intracellular Ca2+ in oocytes” value on calcium receptor (hexacyclen 135 μM, neomycin 100 μM, NPS 382 5 mM) was “also effective”. Further, the “effect on Cl- current” value was “evoked oscillatory increases in the Cl^-” at calcium receptor (listed as Neomycin B) and “evokes oscillating increases in the Cl^-” at calcium receptor (listed as neomycin B). The “effect in water-injected oocytes” value at calcium receptor (listed as Neomycin B) is “failed to elicit a response in five water-injected oocytes”; at calcium receptor (listed as neomycin B), “failed to cause any change in the current”. The “effect on [Ca2+]i in human parathyroid cells” value in assay [3] was “large increase in [Ca^2+ ]i”; in [3] (listed as Neomycin B), “not only a transient, but additionally a steady-state increase in [Ca^2+ ]i”; in assay [3] (listed as neomycin B), “transient and sustained increases in [Ca^2+ ]i”.
